The values below come from ChEMBL document CHEMBL1140882, “Pestalofones A-E, bioactive cyclohexanone derivatives from the plant endophytic fungus Pestalotiopsis fici” (Bioorg Med Chem, 2009).

Converted amounts (≈) assume the structure as drawn. Counter-ions that a name gives are not always drawn.

Series [1] in a line: Cytotoxicity against human C8166 cells after 4 days by MTT assay. Format: cell-based. For orientation: Tetrazolium dyes change colour on reduction, which living cells bring about.
Series [2] relates to Human immunodeficiency virus 1. Nature of the series: Antiviral activity against HIV1 replication in human C8166 cells by ELISA. Format: functional, organism-based. Conditions: Human immunodeficiency virus 1, C8166. Background: An ELISA detects its analyte on a solid surface through an enzyme-linked reagent.
In another series the test system is Aspergillus fumigatus. Nature of the series: Antimicrobial activity against Aspergillus fumigatus ATCC 10894. Format: functional, organism-based.

A word on the CC50: it is the concentration at which the toxic effect on the cells reaches its halfway point. A low value points to greater toxicity to the cells. In general, EC50 refers to the concentration at which the effect is half-maximal. In turn, `CC(C)=C/C=C1\C[C@H](O)[C@@H]2O[C@]2(CC=C(C)C)C1=O` [PESTALOFONE A] displayed a CC50 at 96 h in series [1] greater than 200 µM. The same molecule registered an EC50 in series [2] of 90.4 µM.
Regarding `CC(C)(C)NC(=O)[C@@H]1CN(Cc2cccnc2)CCN1C[C@@H](O)C[C@@H](Cc1ccccc1)C(=O)N[C@H]1c2ccccc2C[C@H]1O` [INDINAVIR SULFATE], in series [2], the concentration giving a half-maximal response (EC50) came out at 0.00881 µM.
A word on the IC50: it is the midpoint of a concentration-inhibition curve. A lower IC50 goes with greater potency in that assay. The MIC is the lowest concentration that inhibits growth of the organism. Lower therefore signals greater potency. In series [1], `COC(=O)c1cc(OC)cc2oc3c(CC(=O)[C@@]4(O)C[C@H](O)[C@@H]5O[C@]5(CC=C(C)C)[C@@H]4O)c(C)c(CC(C)=O)c(O)c3c(=O)c12` [PESTALOFONE E] showed a CC50 at 96 h greater than 200 µM. In the series with Aspergillus fumigatus, this molecule returned an IC50 of 0.9 µM and an MIC of 31.2 µM (≈ 19.5 µg/mL). In addition, it took 93.7 µM to reach a half-maximal effect in series [2] (EC50).
With `OC(Cn1cncn1)(Cn1cncn1)c1ccc(F)cc1F` [FLUCONAZOLE], in the series with Aspergillus fumigatus, the concentration for half-maximal inhibition (IC50) turned out to be 7.35 µM and the MIC was determined as 163 µM (≈ 50 µg/mL).
With `C=C(C)/C=C1/C(=C2\C[C@H](O)[C@@H]3O[C@]3(CC=C(C)C)[C@@H]2O)C=C(C)C[C@@]12C[C@H](O)[C@@H]1O[C@]1(CC=C(C)C)C2=O` [PESTALOFONE B], in series [1], the CC50 at 96 h was greater than 200 µM. Also, it took 64 µM to reach a half-maximal effect in series [2] (EC50).
Turning to `C=C(C)/C=C1/C(=C2\C[C@H](O)[C@@H]3O[C@]3(CC=C(C)C)C2=O)C=C(C)C[C@@]12C[C@H](O)[C@@H]1O[C@]1(CC=C(C)C)C2=O` [PESTALOFONE C], in the series with Aspergillus fumigatus, the IC50 stood at 1.1 µM and inhibition of growth (MIC) required 35.3 µM (≈ 18.4 µg/mL).
